Laboratory results published in patent US20260027179A1, “ANTI-SYNUCLEINOPATHY PEPTIDE AND METHODS TO TREAT NEURODEGENERATIVE DISEASES” (University of British Columbia, priority 2021, published 2026).

How the values were obtained:
[1] = tested on: TH-positive neurons; experiment: Protection against MPP+ toxicity in ventral midbrain cultures (TH protein, TH-positive neuron counting); type: cell-based, rat; conditions: 25 μM, 48 hrs, MPP+ 20 μM
Protocol: Primary rat neuron cultures were prepared from embryos of pregnant Sprague-Dawley rats (E18). The experimental protocol was approved by the University of British Columbia Animal Care Committee. Briefly, the cortical tissue or ventral midbrain tissue was isolated into ice cold HBSS (Invitrogen, 14170-112) and then digested with 0.25% trypsin-EDTA at 37° C. for 30 min. After washing with warm DMEM (supplemented with 10% FBS) three times, neurons were suspended in neuron culture media and dissociated by trituration using varying sizes of pipettes. […]
Neurons were then washed 6×2 min in PBS, and incubated in Alexa Fluor 488 (Life technologies, A-11034; 1:500 dilution in 3% BSA/PBS) for 45 min at 37° C. without agitation. […] Neurons were then imaged with the Zeiss Axio Observer D1 microscope at 20× and 10 fields of view per coverslip were randomly selected and counted. […]
(§1) Brain tissues or cultured cells were lysed on ice in the lysis buffer and then the solution was centrifuged at 14,000 rpm for 10 min at 4° C. Next, the supernatant was collected and protein concentrations were determined using a BCA protein assay kit (Thermo Scientific, 23227). […] The band density of each protein was quantified by the Bio-Rad Quantity One software and the relative optical density was analyzed relative to the loading control β-actin on the same membrane.

[2] = molecular target: T1, α-synuclein (Mus musculus, UniProt O55042); experiment: MPTP mouse model, α-synuclein immunoblotting of brain tissue; type: in vivo; conditions: MPTP mice, 6 μmol/kg i.p. twice a day for 12 days, immunoblot
T1 construct: tissue Charles River; host or cells: ventral midbrain and striatum of C57BL/6 mice
Protocol: C57BL/6 mice were i.p. injected with 30 mg/kg parkinsonian toxin MPTP (or saline as control), once per day for 5 consecutive days, to induce dopaminergic neuron damage. The effects of MPTP administration on mouse rotarod performance and damage to dopaminergic neurons were then analyzed 1 week after the last injection of MPTP. To determine the effect of α-synuclein knockdown in protecting dopaminergic neurons against MPTP, the Tat-βsyn-degron peptide or its control Tat-βsyn (6 μmol/kg; i.p.) was used in some animals twice a day for 12 days, beginning the first day of MPTP injection. […] The striatum is a region that receives dopaminergic neuronal projections from the substantia nigra and is also deeply affected in PD. […]
as §1

For “YGRKKRRQRRRRTKSGVYLVGRRRG (The sequence is synthesized (YGRKKRRQRRRRTKSGVYLVGRRRG)) [Tat-βsyn-degron]”, the “numbers of TH-positive neurons after MPP+” value ([1]; blinded counting) was “almost fully protected dopaminergic neurons”, the “TH protein levels after MPP+” value ([1]; immunoblot) was “rescue of TH protein levels” and the α-synuclein in striatum [2] was “induced significant α-synuclein degradation”. The “α-synuclein in substantia nigra-containing ventral midbrain” value [2] was “induced significant α-synuclein degradation”.
